The source made the active and inactive calls. The calls are words filed in the database; no cut-off is given here.
Experiments:
[1] = Cmax in rat brain; type: ADME, organism-based
Adenosine receptor A2a = Adenosine receptor A2a (Homo sapiens, UniProt P29274); test: Antagonistic activity at adenosine A2A receptor; type: functional
Adenosine receptor A1 = molecular target: T1, Adenosine receptor A1 (Homo sapiens, UniProt P30542); test: Antagonistic activity at adenosine A1 receptor; type: functional
T1 sequence (P30542 whole entry): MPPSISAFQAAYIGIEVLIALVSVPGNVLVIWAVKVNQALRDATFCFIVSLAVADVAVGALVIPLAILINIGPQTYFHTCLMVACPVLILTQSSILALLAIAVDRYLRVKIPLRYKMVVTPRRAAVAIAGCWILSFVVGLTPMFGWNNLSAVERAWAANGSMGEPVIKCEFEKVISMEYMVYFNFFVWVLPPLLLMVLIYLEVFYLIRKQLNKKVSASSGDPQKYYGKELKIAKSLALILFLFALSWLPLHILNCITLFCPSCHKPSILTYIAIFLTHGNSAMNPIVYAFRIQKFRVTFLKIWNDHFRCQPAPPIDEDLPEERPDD

Mus musculus [2] = test: Antagonist activity against haloperidol-induced catalepsy in po dosed mouse; type: functional
Mus musculus [3] = test: Antagonist activity against haloperidol-induced catalepsy in mouse at 3 mg/kg, po; type: functional, organism-based; parameters: dose 3 mg/kg
Mus musculus [4] = test: Antagonist activity against haloperidol-induced catalepsy in mouse at 10 mg/kg, po; type: functional, organism-based; parameters: dose 10 mg/kg

Adenosine receptor A2a, sequence (P29274 whole entry): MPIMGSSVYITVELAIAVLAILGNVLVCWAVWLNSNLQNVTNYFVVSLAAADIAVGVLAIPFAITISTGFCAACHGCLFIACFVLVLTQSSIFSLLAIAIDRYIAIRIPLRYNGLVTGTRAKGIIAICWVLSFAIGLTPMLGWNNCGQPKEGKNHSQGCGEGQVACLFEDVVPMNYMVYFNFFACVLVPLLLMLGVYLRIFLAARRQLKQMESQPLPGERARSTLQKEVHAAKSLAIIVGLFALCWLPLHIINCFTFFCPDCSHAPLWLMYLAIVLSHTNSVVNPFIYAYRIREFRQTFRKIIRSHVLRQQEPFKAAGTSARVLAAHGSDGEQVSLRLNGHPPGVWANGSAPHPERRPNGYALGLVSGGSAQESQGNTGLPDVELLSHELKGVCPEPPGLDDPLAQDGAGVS

Row | SMILES | Cmax [1] [µM] | Ki (Adenosine receptor A2a) [µM] | Ki (Adenosine receptor A1) [µM] | ED50 (Mus musculus [2]) [mg/kg] | Activity (Mus musculus [3]) | Activity (Mus musculus [4])
1 | Nc1nc(-c2ccccc2)c2c(n1)-c1cc(CN3CCCC3)ccc1C2=O | 3.6 |  |  |  |  | 
2 | CN(C)CCN(C)c1ccc2c(c1)-c1nc(N)nc(-c3ccccc3)c1C2=O |  | 0.0047 | 0.0573 |  |  | 
3 | CC(C)N1CCC(NC(=O)c2ccc3c(c2)-c2nc(N)nc(-c4ccccc4)c2C3=O)CC1 |  | 0.0168 | 0.119 | 0.4 |  | 
4 | Nc1nc(-c2ccccc2)c2c(n1)-c1cc(NCCc3ccccn3)ccc1C2=O |  | 0.0009 | 0.0154 |  |  | 
5 | Nc1nc(-c2ccccc2)c2c(n1)-c1cc(OCCN3CCCCC3)ccc1C2=O |  | 0.0353 | 0.194 |  |  | 
6 | CCN1CCN(C(=O)c2ccc3c(c2)-c2nc(N)nc(-c4ccc(F)cc4)c2C3=O)CC1 |  | 0.0321 | 0.191 |  |  | 
7 | Nc1nc(-c2ccccc2)c2c(n1)-c1cc(N3CCOCC3)ccc1C2=O |  | 0.0029 | 0.0324 |  |  | 
8 | CN1CCN(c2ccc3c(c2)-c2nc(N)nc(-c4ccccc4)c2C3=O)CC1 |  | 0.0027 | 0.0356 | < 1 |  | 
9 | CN1CCN(C(=O)c2ccc3c(c2)-c2nc(N)nc(-c4ccc(F)cc4)c2C3=O)CC1 |  | 0.0111 | 0.101 | < 1 |  | 
10 | Nc1nc(-c2ccc(F)cc2)c2c(n1)-c1cc(OCCN3CCOCC3)ccc1C2=O |  | 0.0181 | 0.203 | < 1 |  | 
11 | Nc1nc(-c2ccccc2)c2c(n1)-c1cc(OCCN3CCOCC3)ccc1C2=O | 4.1 |  | 0.0482 | < 1 |  | 
12 | CN(C)CCOc1ccc2c(c1)-c1nc(N)nc(-c3ccccc3)c1C2=O |  | 0.0173 | 0.0333 | < 3 |  | 
13 | CC(C)N(CCOc1ccc2c(c1)-c1nc(N)nc(-c3ccccc3)c1C2=O)C(C)C |  | 0.0137 | 0.187 | < 1 |  | 
14 | CCN1CCN(c2ccc3c(c2)-c2nc(N)nc(-c4ccccc4)c2C3=O)CC1 |  | 0.0114 | 0.256 | < 1 |  | 
15 | CN1CCCN(c2ccc3c(c2)-c2nc(N)nc(-c4ccccc4)c2C3=O)CC1 |  | 0.01 | 0.137 |  |  | 
16 | Nc1nc(-c2ccccc2)c2c(n1)-c1cc(C(=O)N3CCNCC3)ccc1C2=O |  | 0.0325 | 0.0123 |  |  | 
17 | CC(C)N(CCOc1ccc2c(c1)-c1nc(N)nc(-c3ccc(F)cc3)c1C2=O)C(C)C |  | 0.0766 | 0.468 |  |  | 
18 | Nc1nc(-c2ccccc2)c2c(n1)-c1cc(C(=O)NCCN3CCOCC3)ccc1C2=O |  | 0.0284 | 0.215 |  |  | 
19 | CN1CCN(C(=O)c2ccc3c(c2)-c2nc(N)nc(-c4ccccc4)c2C3=O)CC1 | 0.6 |  |  | 0.4 |  | 

Row | SMILES | Cmax [1] [µM] | Ki (Adenosine receptor A2a) [µM] | Ki (Adenosine receptor A1) [µM] | ED50 (Mus musculus [2]) [mg/kg] | Activity (Mus musculus [3]) | Activity (Mus musculus [4])
20 | Nc1nc(-c2ccccc2)c2c(n1)-c1cc(N3CCN(CC4CC4)CC3)ccc1C2=O |  | 0.0232 | 0.253 |  |  | 
21 | CCN(CC)CCN(C)C(=O)c1ccc2c(c1)-c1nc(N)nc(-c3ccccc3)c1C2=O |  | 0.0078 | 0.0947 | < 1 |  | 
22 | CCN(CC)CCOc1ccc2c(c1)-c1nc(N)nc(-c3ccc(F)cc3)c1C2=O |  | 0.0506 | 0.414 |  |  | 
23 | CCN1CCC(Nc2ccc3c(c2)-c2nc(N)nc(-c4ccccc4)c2C3=O)CC1 |  | 0.0125 | 0.142 |  | inactive | 
24 | CC(C)N1CCN(C(=O)c2ccc3c(c2)-c2nc(N)nc(-c4ccccc4)c2C3=O)CC1 |  | 0.0207 | 0.0841 |  |  | 
25 | CCN1CCC(N(C)c2ccc3c(c2)-c2nc(N)nc(-c4ccccc4)c2C3=O)CC1 |  | 0.0049 | 0.0164 |  |  | 
26 | Nc1nc(-c2ccccc2)c2c(n1)-c1cc(NCCc3ccncc3)ccc1C2=O |  | 0.0009 | 0.0127 |  |  | 
27 | CN1CCC(N(C)C(=O)c2ccc3c(c2)-c2nc(N)nc(-c4ccccc4)c2C3=O)CC1 |  | 0.0186 | 0.258 | < 1 |  | 
28 | CN(C)CCOc1ccc2c(c1)-c1nc(N)nc(-c3ccc(F)cc3)c1C2=O |  | 0.0373 | 0.0374 |  |  | 
29 | Nc1nc(-c2ccccc2)c2c(n1)-c1cc(OCCN3CCCC3)ccc1C2=O |  | 0.0193 | 0.159 | < 1 |  | 
30 | CCN1CCN(C(=O)c2ccc3c(c2)-c2nc(N)nc(-c4ccccc4)c2C3=O)CC1 |  | 0.0149 | 0.0674 | < 1 |  | 
31 | Nc1nc(-c2ccccc2)c2c(n1)-c1cc(NCCN3CCOCC3)ccc1C2=O |  | 0.0044 | 0.0327 | < 1 |  | 
32 | Nc1nc(-c2ccc(F)cc2)c2c(n1)-c1cc(OCCN3C4CCC3CC4)ccc1C2=O |  | 0.0351 | 0.337 |  |  | inactive
33 | Nc1nc(-c2ccccc2)c2c(n1)-c1cc(NCCN3CCS(=O)(=O)CC3)ccc1C2=O |  | 0.0031 | 0.0467 |  | inactive | 
34 | Nc1nc(-c2ccc(F)cc2)c2c(n1)-c1cc(OCCN3CCCC3)ccc1C2=O |  | 0.117 | 0.6 | 0.8 |  | 
35 | CCN(CC)CCNC(=O)c1ccc2c(c1)-c1nc(N)nc(-c3ccccc3)c1C2=O |  | 0.0135 | 0.0452 |  |  | 
36 | CN(C)CCN(C)C(=O)c1ccc2c(c1)-c1nc(N)nc(-c3ccccc3)c1C2=O |  | 0.0124 | 0.208 | < 1 |  | 
37 | CCN(CC)CCOc1ccc2c(c1)-c1nc(N)nc(-c3ccccc3)c1C2=O |  | 0.0079 | 0.103 | < 1 |  | 

— ChEMBL document CHEMBL1157881, “Optimization of arylindenopyrimidines as potent adenosine A(2A)/A(1) antagonists” (Bioorg Med Chem Lett, 2010)
